{"source": "patent US20050142531A1", "about": "“Peptidically buffered formulations for electrotransport applications and methods of making” (priority 2003, published 2005)", "test": "pKa, pI and % salt of peptidic buffers", "format": "physicochemical", "conditions": "for pI: Table 2; for % salt: fraction ionized with net charge in aqueous solution at pH equal to the pI", "note": "Square brackets hold non-standard residues; d marks the D form. Peptide text beside a SMILES is read from it. Cit = NC(=O)NCCC[C@H](N)C(=O)O", "data": [{"compound": "N[C@@H](Cc1c[nH]cn1)C(=O)N[C@@H](Cc1ccccc1)C(=O)O", "note": "[His-Phe] (H-His-Phe-OH; N-terminus and C-terminus assumed)", "values": [{"measurement": "pka A (acidic pKa)", "setting": "Table 2, first acidic pKa", "result": 2.88}, {"measurement": "pka B (basic pKa)", "setting": "Table 2, first basic pKa", "result": 6.10}, {"measurement": "pka B (basic pKa)", "setting": "Table 2, second basic pKa", "result": 7.80}]}, {"compound": "CSCC[C@H](NC(=O)[C@@H](N)Cc1c[nH]cn1)C(=O)O", "note": "[His-Met] (H-His-Met-OH; N-terminus and C-terminus assumed)", "values": [{"measurement": "pka A (acidic pKa)", "setting": "Table 2, first acidic pKa", "result": 2.89}, {"measurement": "pka B (basic pKa)", "setting": "Table 2, first basic pKa", "result": 6.10}, {"measurement": "pka B (basic pKa)", "setting": "Table 2, second basic pKa", "result": 7.80}]}, {"compound": "NCCCC[C@H](N)C(=O)N[C@@H](Cc1c[nH]cn1)C(=O)O", "note": "[Lys-His]", "values": [{"measurement": "pka A (acidic pKa)", "setting": "Table 2, first acidic pKa", "result": 2.42}, {"measurement": "pka B (basic pKa)", "setting": "Table 2, first basic pKa", "result": 6.71}, {"measurement": "pka B (basic pKa)", "setting": "Table 2, second basic pKa", "result": 8.00}, {"measurement": "pka B (basic pKa)", "setting": "Table 2, third basic pKa", "result": 11.00}]}, {"compound": "NCCC(=O)N[C@@H](Cc1cnc[nH]1)C(=O)O", "note": "[Carnosine]", "values": [{"measurement": "pI", "result": 8.17}, {"measurement": "pka A (acidic pKa)", "setting": "Table 2, first acidic pKa", "result": 2.64}, {"measurement": "pka B (basic pKa)", "setting": "Table 2, first basic pKa", "result": 6.83}, {"measurement": "pka B (basic pKa)", "setting": "Table 2, second basic pKa", "result": 9.51}, {"measurement": "% salt", "result": 8, "unit": "%"}]}, {"compound": "NCCC(=O)N[C@@H](Cc1cnc[nH]1)C(=O)O", "note": "[Beta-Alanylhistidine]", "values": [{"measurement": "pI", "result": 7.70}, {"measurement": "pka A (acidic pKa)", "setting": "Table 2, first acidic pKa", "result": 2.60}, {"measurement": "pka B (basic pKa)", "setting": "Table 2, first basic pKa", "result": 6.70}, {"measurement": "pka B (basic pKa)", "setting": "Table 2, second basic pKa", "result": 8.70}, {"measurement": "% salt", "result": 16, "unit": "%"}]}, {"compound": "N[C@@H](Cc1c[nH]cn1)C(=O)N[C@@H](CO)C(=O)O", "note": "[His-Ser] (H-His-Ser-OH; N-terminus and C-terminus assumed)", "values": [{"measurement": "pka A (acidic pKa)", "setting": "Table 2, first acidic pKa", "result": 2.65}, {"measurement": "pka B (basic pKa)", "setting": "Table 2, first basic pKa", "result": 6.10}, {"measurement": "pka B (basic pKa)", "setting": "Table 2, second basic pKa", "result": 7.80}]}, {"compound": "CSCC[C@H](N)C(=O)N[C@@H](Cc1c[nH]cn1)C(=O)O", "note": "[Met-His] (H-Met-His-OH; N-terminus and C-terminus assumed)", "values": [{"measurement": "pka A (acidic pKa)", "setting": "Table 2, first acidic pKa", "result": 2.42}, {"measurement": "pka B (basic pKa)", "setting": "Table 2, first basic pKa", "result": 6.71}, {"measurement": "pka B (basic pKa)", "setting": "Table 2, second basic pKa", "result": 7.97}]}, {"compound": "C[C@H](N)C(=O)N[C@@H](Cc1c[nH]cn1)C(=O)O", "note": "[Ala-His] (H-Ala-His-OH; N-terminus and C-terminus assumed)", "values": [{"measurement": "pka A (acidic pKa)", "setting": "Table 2, first acidic pKa", "result": 2.42}, {"measurement": "pka B (basic pKa)", "setting": "Table 2, first basic pKa", "result": 6.71}, {"measurement": "pka B (basic pKa)", "setting": "Table 2, second basic pKa", "result": 8.37}]}, {"compound": "NC(=O)CC[C@H](N)C(=O)N[C@@H](Cc1c[nH]cn1)C(=O)O", "note": "[GIn-His] (H-Gln-His-OH; N-terminus and C-terminus assumed)", "values": [{"measurement": "pka A (acidic pKa)", "setting": "Table 2, first acidic pKa", "result": 2.42}, {"measurement": "pka B (basic pKa)", "setting": "Table 2, first basic pKa", "result": 6.71}, {"measurement": "pka B (basic pKa)", "setting": "Table 2, second basic pKa", "result": 7.70}]}, {"compound": "CC[C@H](C)[C@H](N)C(=O)N[C@@H](Cc1c[nH]cn1)C(=O)O", "note": "[Isoleucine-His] (H-Ile-His-OH; N-terminus and C-terminus assumed)", "values": [{"measurement": "pka A (acidic pKa)", "setting": "Table 2, first acidic pKa", "result": 2.42}, {"measurement": "pka B (basic pKa)", "setting": "Table 2, first basic pKa", "result": 6.71}, {"measurement": "pka B (basic pKa)", "setting": "Table 2, second basic pKa", "result": 8.20}]}, {"compound": "NC(=O)NCCC[C@H](NC(=O)[C@@H](N)Cc1c[nH]cn1)C(=O)O", "note": "[His-Citrulline] (H-His-[Cit]-OH; N-terminus and C-terminus assumed)", "values": [{"measurement": "pka A (acidic pKa)", "setting": "Table 2, first acidic pKa", "result": 3.05}, {"measurement": "pka B (basic pKa)", "setting": "Table 2, first basic pKa", "result": 6.10}, {"measurement": "pka B (basic pKa)", "setting": "Table 2, second basic pKa", "result": 7.80}]}, {"compound": "NCC(=O)N[C@@H](CC(=O)O)C(=O)O", "note": "[Gly-Asp] (H-Gly-Asp-OH; N-terminus and C-terminus assumed)", "values": [{"measurement": "pka A (acidic pKa)", "setting": "Table 2, first acidic pKa", "result": 2.81}, {"measurement": "pka B (basic pKa)", "setting": "Table 2, first basic pKa", "result": 8.60}, {"measurement": "pka A (acidic pKa)", "setting": "Table 2, second acidic pKa", "result": 4.45}]}, {"compound": "Cn1cncc1C[C@H](NC(=O)CCN)C(=O)O", "note": "[Anserine]", "values": [{"measurement": "pka A (acidic pKa)", "setting": "Table 2, first acidic pKa", "result": 2.64}, {"measurement": "pka B (basic pKa)", "setting": "Table 2, first basic pKa", "result": 7.04}, {"measurement": "pka B (basic pKa)", "setting": "Table 2, second basic pKa", "result": 9.49}]}, {"compound": "N=C(N)NCCC[C@H](NC(=O)[C@@H](N)Cc1ccc(O)cc1)C(=O)O", "note": "[Tyr-Arg]", "values": [{"measurement": "pka A (acidic pKa)", "setting": "Table 2, first acidic pKa", "result": 2.64}, {"measurement": "pka B (basic pKa)", "setting": "Table 2, first basic pKa", "result": 7.39}, {"measurement": "pka A (acidic pKa)", "setting": "Table 2, second acidic pKa", "result": 9.36}, {"measurement": "pka B (basic pKa)", "setting": "Table 2, second basic pKa", "result": 11.62}]}, {"compound": "NCCC[C@H](N)C(=O)N[C@@H](Cc1c[nH]cn1)C(=O)O", "note": "[Ornithine-His]", "values": [{"measurement": "pka A (acidic pKa)", "setting": "Table 2, first acidic pKa", "result": 2.42}, {"measurement": "pka B (basic pKa)", "setting": "Table 2, first basic pKa", "result": 6.71}, {"measurement": "pka B (basic pKa)", "setting": "Table 2, second basic pKa", "result": 7.30}, {"measurement": "pka B (basic pKa)", "setting": "Table 2, third basic pKa", "result": 11.00}]}, {"compound": "O=C(O)[C@H](Cc1c[nH]cn1)NC(=O)[C@@H]1CCCN1", "note": "[Pro-His]", "values": [{"measurement": "pka A (acidic pKa)", "setting": "Table 2, first acidic pKa", "result": 2.42}, {"measurement": "pka B (basic pKa)", "setting": "Table 2, first basic pKa", "result": 6.71}, {"measurement": "pka B (basic pKa)", "setting": "Table 2, second basic pKa", "result": 9.10}]}, {"compound": "N[C@@H](CC(=O)O)C(=O)N[C@@H](Cc1c[nH]cn1)C(=O)O", "note": "[Asp-His] (H-Asp-His-OH; N-terminus and C-terminus assumed)", "values": [{"measurement": "pka A (acidic pKa)", "setting": "Table 2, first acidic pKa", "result": 2.45}, {"measurement": "pka B (basic pKa)", "setting": "Table 2, first basic pKa", "result": 6.81}, {"measurement": "pka A (acidic pKa)", "setting": "Table 2, second acidic pKa", "result": 3.02}, {"measurement": "pka B (basic pKa)", "setting": "Table 2, second basic pKa", "result": 7.98}]}, {"compound": "N=C(N)NCCC[C@H](N)C(=O)N[C@@H](CC(=O)O)C(=O)O", "note": "[Arg-Asp] (H-Arg-Asp-OH; N-terminus and C-terminus assumed)", "values": [{"measurement": "pka A (acidic pKa)", "setting": "Table 2, first acidic pKa", "result": 2.64}, {"measurement": "pka B (basic pKa)", "setting": "Table 2, first basic pKa", "result": 8.05}, {"measurement": "pka A (acidic pKa)", "setting": "Table 2, second acidic pKa", "result": 4.10}, {"measurement": "pka B (basic pKa)", "setting": "Table 2, second basic pKa", "result": 12.50}]}, {"compound": "N[C@@H](Cc1ccccc1)C(=O)N[C@@H](Cc1c[nH]cn1)C(=O)O", "note": "[Phe-His] (H-Phe-His-OH; N-terminus and C-terminus assumed)", "values": [{"measurement": "pka A (acidic pKa)", "setting": "Table 2, first acidic pKa", "result": 2.42}, {"measurement": "pka B (basic pKa)", "setting": "Table 2, first basic pKa", "result": 6.71}, {"measurement": "pka B (basic pKa)", "setting": "Table 2, second basic pKa", "result": 7.70}]}, {"compound": "NC(=O)CC[C@H](NC(=O)[C@@H](N)Cc1c[nH]cn1)C(=O)O", "note": "[His-Gln] (H-His-Gln-OH; N-terminus and C-terminus assumed)", "values": [{"measurement": "pka A (acidic pKa)", "setting": "Table 2, first acidic pKa", "result": 2.93}, {"measurement": "pka B (basic pKa)", "setting": "Table 2, first basic pKa", "result": 6.10}, {"measurement": "pka B (basic pKa)", "setting": "Table 2, second basic pKa", "result": 7.80}]}, {"compound": "N[C@@H](Cc1c[nH]cn1)C(=O)N[C@@H](Cc1c[nH]cn1)C(=O)O", "note": "[His-His]", "values": [{"measurement": "pka A (acidic pKa)", "setting": "Table 2, first acidic pKa", "result": 2.25}, {"measurement": "pka B (basic pKa)", "setting": "Table 2, first basic pKa", "result": 5.40}, {"measurement": "pka B (basic pKa)", "setting": "Table 2, second basic pKa", "result": 6.80}, {"measurement": "pka B (basic pKa)", "setting": "Table 2, third basic pKa", "result": 7.95}]}, {"compound": "N[C@@H](Cc1c[nH]c2ccccc12)C(=O)N[C@@H](Cc1c[nH]cn1)C(=O)O", "note": "[Trp-His] (H-Trp-His-OH; N-terminus and C-terminus assumed)", "values": [{"measurement": "pka A (acidic pKa)", "setting": "Table 2, first acidic pKa", "result": 2.42}, {"measurement": "pka B (basic pKa)", "setting": "Table 2, first basic pKa", "result": 6.71}, {"measurement": "pka B (basic pKa)", "setting": "Table 2, second basic pKa", "result": 7.90}]}, {"compound": "N[C@@H](Cc1c[nH]cn1)C(=O)N[C@@H](Cc1ccc(O)cc1)C(=O)O", "note": "[His-Tyr] (H-His-Tyr-OH; N-terminus and C-terminus assumed)", "values": [{"measurement": "pka A (acidic pKa)", "setting": "Table 2, first acidic pKa", "result": 2.13}, {"measurement": "pka B (basic pKa)", "setting": "Table 2, first basic pKa", "result": 6.10}, {"measurement": "pka A (acidic pKa)", "setting": "Table 2, second acidic pKa", "result": 9.97}, {"measurement": "pka B (basic pKa)", "setting": "Table 2, second basic pKa", "result": 7.80}]}, {"compound": "CC(C)C[C@H](NC(=O)[C@@H](N)Cc1c[nH]cn1)C(=O)O", "note": "[His-Leu] (H-His-Leu-OH; N-terminus and C-terminus assumed)", "values": [{"measurement": "pka A (acidic pKa)", "setting": "Table 2, first acidic pKa", "result": 3.10}, {"measurement": "pka B (basic pKa)", "setting": "Table 2, first basic pKa", "result": 6.10}, {"measurement": "pka B (basic pKa)", "setting": "Table 2, second basic pKa", "result": 7.80}]}, {"compound": "CC[C@H](C)[C@H](NC(=O)[C@@H](N)Cc1c[nH]cn1)C(=O)O", "note": "[His-Isoleucine] (H-His-Ile-OH; N-terminus and C-terminus assumed)", "values": [{"measurement": "pka A (acidic pKa)", "setting": "Table 2, first acidic pKa", "result": 3.13}, {"measurement": "pka B (basic pKa)", "setting": "Table 2, first basic pKa", "result": 6.10}, {"measurement": "pka B (basic pKa)", "setting": "Table 2, second basic pKa", "result": 7.80}]}]}
